# According to patent EP0083204A2, “2-Aminophenol derivatives and process for their preparation” (ONO PHARMACEUTICAL CO., LTD., priority 1981, dated 1983):
# Structures can show the parent of a compound that is named as a salt.
# Columns and labels:
# 5-lipoxygenase [1] = biological target: T1, 5-lipoxygenase (Cavia porcellus, UniProt A0A286X958); test: standard assay system using polymorphonuclear leukocytes (production of 5-HETE from [14C] arachidonic acid); type: cell-based; conditions: intact polymorphonuclear leukocytes from guinea pig, 4 x 10^7 cells, 37°C, 5 minutes, read-out: concentrations for 50% inhibitions on 5-lipoxygenase
# T1 construct: The supernate was used as an enzyme throughout this work; from tissue; host or cells: 105,000 x g supernatant of sonicated, casein-elicited guinea pig polymorphonuclear leukocytes
# T1 sequence (A0A286X958 1-674): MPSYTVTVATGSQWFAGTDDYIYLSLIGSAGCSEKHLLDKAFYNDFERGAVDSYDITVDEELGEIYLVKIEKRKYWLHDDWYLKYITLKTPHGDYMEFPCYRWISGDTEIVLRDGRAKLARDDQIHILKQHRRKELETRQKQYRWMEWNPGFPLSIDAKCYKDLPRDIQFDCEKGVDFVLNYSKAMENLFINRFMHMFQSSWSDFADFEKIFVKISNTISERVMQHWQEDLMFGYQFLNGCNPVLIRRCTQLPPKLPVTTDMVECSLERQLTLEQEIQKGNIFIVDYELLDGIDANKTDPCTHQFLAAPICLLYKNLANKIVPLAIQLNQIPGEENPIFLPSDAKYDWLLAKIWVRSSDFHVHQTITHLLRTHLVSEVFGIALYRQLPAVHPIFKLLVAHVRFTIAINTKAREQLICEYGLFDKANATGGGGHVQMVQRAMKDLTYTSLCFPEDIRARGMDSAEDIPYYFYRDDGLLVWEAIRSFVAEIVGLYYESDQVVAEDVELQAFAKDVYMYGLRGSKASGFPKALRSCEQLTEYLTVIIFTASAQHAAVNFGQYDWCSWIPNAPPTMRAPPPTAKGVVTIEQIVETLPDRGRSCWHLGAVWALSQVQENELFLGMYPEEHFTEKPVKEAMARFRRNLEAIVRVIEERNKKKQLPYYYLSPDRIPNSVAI
# Experimental: (§1) For example, in standard assay system using polymorphonuclear leukocytes from guinea pig (details of experiments were described hereafter), (a) the concentrations of 2-amino-4-(4-methylphenylthio)phenol hydrochloride for 50% inhibitions on 5-lipoxygenase and on cyclooxygenase were 0.2 µM and 0.3 µM, respectively, (b) the concentrations of 2-amino-4-phenylthiophenol hydrochloride for 50% inhibitions on 5- lipoxygenase and on cyclooxygenase were 0.1 µM and 0.3 uM, respectively and (c) the concentrations of 2-amino-4-(4-chlorophenylthio)phenol hydrochloride for 50% inhibitions on 5-lipoxygenase and on cyclooxygenase were 0.5 µM and 0.3 µM, respectively. Therefore, it is comfirmed that these compounds (a), (b) and (c) inhibit both 5-lipoxygenase and cyclooxygenase at the same time at very low concentrations.
# (§2) The experiments for screening using polymorphonuclear leukocytes were carried out as follows: The reaction mixture (0.1 ml) containing 5 µmole of potassium phosphate at pH 7.4, 0.1 µmole of calcium chloride, polymorphonuclear leukocytes prepared from guinea pigs (4 x 10^7 cells) and test compound, was preincubated for 5 minutes at 37°C. The reaction was started by the addition of [^14C] arachidonic acid ([…] dpm, 1.8 nmole), followed by the incubation at 37°C for 5 minutes. The reaction was terminated by the addition of 0.3 ml of a mixture of ether/ methanol/lM citric acid (30/4/1). The organic phase (20 µl) was applied to silica gel plate. Thin layer chromatography was performed to separate each product with solvent system of ether/petroleum ether/acetic acid (85/15/0.1).
# (§3) Activity of 5-lipoxygenase and cyclooxygenase were calculated from the measurements of the production of 5-HETE, and 12L-hydroxy-5,8,10-[…] acid (i.e. HHT) or thromboxane B2 (i.e. TXB2), respectively [it has been known that HHT and TXB2 are the last products of the system concerning cyclooxygenase in the arachidonate cascade]. […]
# 5-lipoxygenase [2] = biological target: T1, 5-lipoxygenase; test: assay system evaluating only the inhibitory activity on 5-lipoxygenase (105,000 x g supernate of sonicated polymorphonuclear leukocytes); type: biochemical; conditions: supernate of sonicated guinea pig polymorphonuclear leukocytes, 30°C, 5 minutes, 1 mM calcium chloride; production of 5-HETE, 5,12-diHETE and leukotriene B; read-out: concentrations required to produce 50% inhibitions on 5-lipoxygenase
# Experimental: The experiments for evaluating only the inhibitory activity on 5-lipoxygenase were carried out as follows: Guinea pig was treated by casein and harvested polymorphonuclear leukocytes from cavity were sonicated, followed by the centrifugation at 105,000 x g. The supernate was used as an enzyme throughout this work. The supernate (100 - 500 ug of protein) was incubated for 5 minutes at 30°C with [^14C] arachidonic acid and 1 mM calcium chloride in the presence or in the absence of test compound. The reaction was terminated by the addition of ether. Ether extract was separated by thin layer chromatography using silica gel plates to observe production of 5-HETE, 5,12-diHETE and leukotriene B. In this assay system, the concentrations for 50% inhibitions on 5- lipoxygenase were evaluated by using the concentrations of compounds of the present invention required 50% inhibitions on the production of 5-HETE, 5,12-diHETE and leukotrien B.
# cyclooxygenase = test: standard assay system using polymorphonuclear leukocytes (production of HHT or TXB2 from [14C] arachidonic acid); type: cell-based; conditions: intact polymorphonuclear leukocytes from guinea pig, 4 x 10^7 cells, 37°C, 5 minutes, read-out: concentrations for 50% inhibitions on cyclooxygenase
# Experimental: as §1, §2, §3
# mice = test: acute toxicity by intravenous administration; type: in vivo, mouse; conditions: intravenously administered to tail vein in ten mice at the dose of 30 mg/kg
# Experimental: On the other hand, all extent of the compounds of the present invention were confirmed that their acute toxicities were more than 30 mg/kg by intravenous administration. Therefore, 2-aminophenol derivatives of the present invention may be considered to be sufficiently safe and suitable for medical use.
SMILES,IC50 (5-lipoxygenase [2]) [µM],IC50 (5-lipoxygenase [1]) [µM],IC50 (cyclooxygenase) [µM],mortality (mice)
Nc1cc(Sc2ccc(Cl)cc2)ccc1O [2-Amino-4-(4-chlorophenylthio)phenol hydrochloride],0.3,0.5,0.3,–
"Nc1cc(C#Cc2ccccc2)ccc1O [2-amino-4-phenylethynylphenol, 2-Amino-4-phenylethynylphenol]",0.69,–,–,no mouse was dead
"Nc1cc(Sc2ccccc2)ccc1O [2-amino-4-phenylthiophenol hydrochloride, 2-Amino-4-phenylthiophenol hydrochloride]",0.31,0.1,0.3,no mouse was dead
Nc1cc(Sc2ccc(O)c(N)c2)ccc1O [2-Amino-4-(3-amino-4-hydroxyphenylthio)phenol],1.5,–,–,–
CC(C)(C)c1ccc(Sc2ccc(O)c(N)c2)cc1 [2-Amino-4-(4-tert-butylphenylthio)phenol hydrochloride],0.32,–,–,–
"Cc1cc(C)c(Sc2ccc(O)c(N)c2)c(C)c1 [2-Amino-4-(2,4,6-trimethylphenylthio)phenol hydrochloride]",0.48,–,–,–
Cl.Nc1cc(-c2nc3ccccc3s2)ccc1O [2-Amino-4-(2-benzothiazolyl)phenol hydrochloride],0.23,–,–,no mouse was dead
Cc1ccc(Sc2ccc(O)c(N)c2)cc1.Cl [2-Amino-4-(4-methylphenylthio)phenol hydrochloride],0.2,0.2,0.3,no mouse was dead

# More lines, main results first:
IC50 (5-lipoxygenase [2]) [µM],SMILES,IC50 (5-lipoxygenase [1]) [µM],IC50 (cyclooxygenase) [µM],mortality (mice)
18,Nc1cc(NC(=O)c2ccccc2)ccc1O [N-(3-Amino-4-hydroxyphenyl)benzamide hydrochloride],–,–,–
0.46,"Nc1cc(Sc2ccc(O)cc2)ccc1O [2-amino-4-(4-hydroxyphenylthio)phenol, 2-Amino-4-(4-hydroxyphenylthio)phenol]",–,–,–
11,"Nc1cc([S+]([O-])c2ccccc2)ccc1O (stereo not drawn) [2-amino-4-benzenesulfinylphenol, 2-Amino-4-benzenesulfinylphenol]",–,–,–
